PubChem BioAssay (NCI)
“And” between values parts separate entries of the source, which are not always exact repeats. Equal values may be shown once.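 The compound was tested at five concentrations on cells cultured in 96-well plates, with a 48-hour exposure period. The concentration for 50% growth inhibition is given as GI50. The concentration for full growth arrest is given as TGI.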

Columns and labels:
Experiment in all cases: NCI anticancer screen, dose series, 48 h
SNB-19 CNS = test system: SNB-19 CNS
786-0 renal = test system: 786-0 renal
NCI/ADR-RES ovarian = test system: NCI/ADR-RES ovarian
RXF 393 renal = test system: RXF 393 renal
NCI-H226 lung = test system: NCI-H226 lung
NCI-H522 lung = test system: NCI-H522 lung
T-47D breast = test system: T-47D breast
M14 melanoma = test system: M14 melanoma
LOX IMVI melanoma = test system: LOX IMVI melanoma
ACHN renal = test system: ACHN renal
DU-145 prostate = test system: DU-145 prostate
MOLT-4 leukemia = test system: MOLT-4 leukemia
IGROV1 ovarian = test system: IGROV1 ovarian
HL-60(TB) leukemia = test system: HL-60(TB) leukemia
SK-OV-3 ovarian = test system: SK-OV-3 ovarian
MDA-MB-435 = test system: MDA-MB-435
SF-268 CNS = test system: SF-268 CNS
SNB-75 CNS = test system: SNB-75 CNS
NCI-H460 lung = test system: NCI-H460 lung
MCF7 breast = test system: MCF7 breast
HT29 colon = test system: HT29 colon
U251 CNS = test system: U251 CNS
A498 renal = test system: A498 renal
OVCAR-8 ovarian = test system: OVCAR-8 ovarian
SF-295 CNS = test system: SF-295 CNS
UACC-257 melanoma = test system: UACC-257 melanoma
NCI-H23 lung = test system: NCI-H23 lung
SW-620 colon = test system: SW-620 colon
TK-10 renal = test system: TK-10 renal
OVCAR-5 ovarian = test system: OVCAR-5 ovarian
COLO 205 colon = test system: COLO 205 colon
HOP-92 NSCLC = test system: HOP-92 NSCLC
KM12 colon = test system: KM12 colon
SK-MEL-5 melanoma = test system: SK-MEL-5 melanoma
OVCAR-4 ovarian = test system: OVCAR-4 ovarian
K-562 leukemia = test system: K-562 leukemia
CAKI-1 renal = test system: CAKI-1 renal
SK-MEL-28 melanoma = test system: SK-MEL-28 melanoma
SF-539 CNS = test system: SF-539 CNS
HS 578T breast = test system: HS 578T breast
BT-549 breast = test system: BT-549 breast
OVCAR-3 ovarian = test system: OVCAR-3 ovarian
RPMI-8226 leukemia = test system: RPMI-8226 leukemia
EKVX NSCLC = test system: EKVX NSCLC
A549 NSCLC = test system: A549 NSCLC
HCC-2998 colon = test system: HCC-2998 colon
MALME-3M melanoma = test system: MALME-3M melanoma
HCT-116 colon = test system: HCT-116 colon
UACC-62 melanoma = test system: UACC-62 melanoma
MDA-MB-231 breast = test system: MDA-MB-231 breast
SK-MEL-2 melanoma = test system: SK-MEL-2 melanoma
SN12C renal = test system: SN12C renal
UO-31 renal = test system: UO-31 renal
HCT-15 colon = test system: HCT-15 colon
HOP-62 NSCLC = test system: HOP-62 NSCLC
PC-3 prostate = test system: PC-3 prostate
CCRF-CEM leukemia = test system: CCRF-CEM leukemia

## O=C(O)C(F)(OC(F)(F)C(F)(F)C(F)(F)F)C(F)(F)F (stereo not drawn)
SNB-19 CNS
  TGI: > 100000 nM
786-0 renal
  TGI: > 100000 nM
NCI/ADR-RES ovarian
  TGI: > 100000 nM
RXF 393 renal
  TGI: > 100000 nM
NCI-H226 lung
  TGI: > 100000 nM
NCI-H522 lung
  TGI: > 100000 nM
T-47D breast
  TGI: > 100000 nM
M14 melanoma
  TGI: > 100000 nM
LOX IMVI melanoma
  TGI: > 100000 nM
ACHN renal
  TGI: > 100000 nM
DU-145 prostate
  TGI: > 100000 nM
MOLT-4 leukemia
  TGI: > 100000 nM
IGROV1 ovarian
  TGI: > 100000 nM
HL-60(TB) leukemia
  TGI: > 100000 nM
SK-OV-3 ovarian
  TGI: > 100000 nM
MDA-MB-435
  TGI: > 100000 nM
SF-268 CNS
  TGI: > 100000 nM
SNB-75 CNS
  TGI: > 100000 nM
NCI-H460 lung
  TGI: > 100000 nM
MCF7 breast
  TGI: > 100000 nM
HT29 colon
  TGI: > 100000 nM
U251 CNS
  TGI: > 100000 nM
A498 renal
  TGI: > 100000 nM
OVCAR-8 ovarian
  TGI: > 100000 nM
SF-295 CNS
  TGI: > 100000 nM
UACC-257 melanoma
  TGI: > 100000 nM
NCI-H23 lung
  TGI: > 100000 nM
SW-620 colon
  TGI: > 100000 nM
TK-10 renal
  TGI: > 100000 nM
OVCAR-5 ovarian
  TGI: > 100000 nM
COLO 205 colon
  TGI: > 100000 nM
HOP-92 NSCLC
  TGI: > 100000 nM
KM12 colon
  TGI: > 100000 nM
SK-MEL-5 melanoma
  TGI: > 100000 nM
OVCAR-4 ovarian
  TGI: > 100000 nM
K-562 leukemia
  TGI: > 100000 nM
CAKI-1 renal
  TGI: > 100000 nM
SK-MEL-28 melanoma
  TGI: > 100000 nM
SF-539 CNS
  TGI: > 100000 nM
HS 578T breast
  TGI: > 100000 nM
BT-549 breast
  TGI: > 100000 nM
OVCAR-3 ovarian
  TGI: > 100000 nM
RPMI-8226 leukemia
  TGI: > 100000 nM
EKVX NSCLC
  TGI: > 100000 nM
A549 NSCLC
  TGI: > 100000 nM
HCC-2998 colon
  TGI: > 100000 nM
MALME-3M melanoma
  TGI: > 100000 nM
HCT-116 colon
  TGI: > 100000 nM
UACC-62 melanoma
  TGI: > 100000 nM
MDA-MB-231 breast
  TGI: > 100000 nM
SK-MEL-2 melanoma
  TGI: > 100000 nM
SN12C renal
  TGI: > 100000 nM
UO-31 renal
  TGI: > 100000 nM
HCT-15 colon
  TGI: > 100000 nM
HOP-62 NSCLC
  TGI: > 100000 nM
PC-3 prostate
  TGI: > 100000 nM

## O=S(=O)(c1ccc2c(c1)C(=NO)c1cc(S(=O)(=O)N3CCCCC3)ccc1-2)N1CCCCC1
SNB-19 CNS
  GI50: 303 nM and 184 nM
  TGI: 962 nM and 326 nM
786-0 renal
  GI50: 212 nM and 186 nM
  TGI: 499 nM and 342 nM
NCI/ADR-RES ovarian
  GI50: > 1000 nM and 196 nM
  TGI: > 1000 nM and 404 nM
RXF 393 renal
  GI50: > 1000 nM and 204 nM
  TGI: > 1000 nM and 358 nM
NCI-H226 lung
  GI50: 292 nM and 106 nM
  TGI: 936 nM and 298 nM
NCI-H522 lung
  GI50: > 1000 nM and 107 nM
  TGI: > 1000 nM and 252 nM
T-47D breast
  GI50: 186 nM and 180 nM
  TGI: 423 nM and 384 nM
M14 melanoma
  GI50: 182 nM and 187 nM
  TGI: 330 nM and 349 nM
ACHN renal
  GI50: 188 nM and 163 nM
  TGI: 389 nM and 319 nM
DU-145 prostate
  GI50: 206 nM and 154 nM
  TGI: 397 nM and 296 nM
MOLT-4 leukemia
  GI50: 204 nM and 215 nM
  TGI: 433 nM and 832 nM
IGROV1 ovarian
  GI50: 131 nM and 73.2 nM
  TGI: 494 nM and 213 nM
HL-60(TB) leukemia
  GI50: 107 nM and 189 nM
  TGI: 326 nM and 549 nM
SK-OV-3 ovarian
  GI50: 187 nM and 162 nM
  TGI: 362 nM and 311 nM
MDA-MB-435
  GI50: 173 nM and 102 nM
  TGI: 317 nM and 244 nM
SF-268 CNS
  GI50: 215 nM and 120 nM
  TGI: 440 nM and 318 nM
SNB-75 CNS
  GI50: 147 nM and 58.7 nM
  TGI: 287 nM and 151 nM
NCI-H460 lung
  GI50: 214 nM and 106 nM
  TGI: 465 nM and 268 nM
MCF7 breast
  GI50: > 1000 nM and 178 nM
  TGI: > 1000 nM and 344 nM
HT29 colon
  GI50: 856 nM and 194 nM
  TGI: > 1000 nM and 400 nM
CCRF-CEM leukemia
  GI50: 72.7 nM
  TGI: 338 nM
U251 CNS
  GI50: > 1000 nM and 178 nM
  TGI: > 1000 nM and 344 nM
A498 renal
  GI50: > 1000 nM and 8880 nM
  TGI: > 1000 nM and 37500 nM
OVCAR-8 ovarian
  GI50: 306 nM and 90.4 nM
  TGI: 842 nM and 281 nM
SF-295 CNS
  GI50: 188 nM and 141 nM
  TGI: 352 nM and 283 nM
UACC-257 melanoma
  GI50: 170 nM
  TGI: 320 nM
NCI-H23 lung
  GI50: > 1000 nM and 162 nM
  TGI: > 1000 nM and 314 nM
SW-620 colon
  GI50: 197 nM and 74.3 nM
  TGI: 437 nM and 174 nM
TK-10 renal
  GI50: 669 nM and 177 nM
  TGI: > 1000 nM and 319 nM
OVCAR-5 ovarian
  GI50: 153 nM and 151 nM
  TGI: 315 nM and 293 nM
COLO 205 colon
  GI50: > 1000 nM and 194 nM
  TGI: > 1000 nM and 363 nM
HOP-92 NSCLC
  GI50: > 1000 nM and 220 nM
  TGI: > 1000 nM and 524 nM
KM12 colon
  GI50: 508 nM and 184 nM
  TGI: > 1000 nM and 356 nM
SK-MEL-5 melanoma
  GI50: > 1000 nM and 174 nM
  TGI: > 1000 nM and 314 nM
OVCAR-4 ovarian
  GI50: 195 nM and 63.6 nM
  TGI: 426 nM and 143 nM
K-562 leukemia
  GI50: 211 nM and 216 nM
  TGI: 452 nM and 785 nM
CAKI-1 renal
  GI50: 427 nM and 147 nM
  TGI: > 1000 nM and 282 nM
SK-MEL-28 melanoma
  GI50: 346 nM and 177 nM
  TGI: > 1000 nM and 326 nM
SF-539 CNS
  GI50: 227 nM and 170 nM
  TGI: 569 nM and 312 nM
HS 578T breast
  GI50: 240 nM and 198 nM
  TGI: 772 nM and 480 nM
BT-549 breast
  GI50: 173 nM and 179 nM
  TGI: 332 nM and 326 nM
OVCAR-3 ovarian
  GI50: 870 nM and 177 nM
  TGI: > 1000 nM and 321 nM
RPMI-8226 leukemia
  GI50: 189 nM and 126 nM
  TGI: 424 nM and 452 nM
EKVX NSCLC
  GI50: 575 nM and 174 nM
  TGI: > 1000 nM and 323 nM
A549 NSCLC
  GI50: > 1000 nM and 187 nM
  TGI: > 1000 nM and 371 nM
HCC-2998 colon
  GI50: 298 nM and 134 nM
  TGI: > 1000 nM and 273 nM
MALME-3M melanoma
  GI50: > 1000 nM and 174 nM
  TGI: > 1000 nM and 312 nM
HCT-116 colon
  GI50: 200 nM and 153 nM
  TGI: 434 nM and 333 nM
UACC-62 melanoma
  GI50: 227 nM and 174 nM
  TGI: 612 nM and 329 nM
MDA-MB-231 breast
  GI50: 179 nM and 56.2 nM
  TGI: 360 nM and 112 nM
SK-MEL-2 melanoma
  GI50: > 1000 nM and 176 nM
  TGI: > 1000 nM and 331 nM
SN12C renal
  GI50: 208 nM and 144 nM
  TGI: 438 nM and 280 nM
UO-31 renal
  GI50: 160 nM and 46.7 nM
  TGI: 319 nM and 110 nM
HCT-15 colon
  GI50: 914 nM and 173 nM
  TGI: > 1000 nM and 323 nM
HOP-62 NSCLC
  GI50: 168 nM and 46.3 nM
  TGI: 360 nM and 105 nM
PC-3 prostate
  GI50: 263 nM and 171 nM
  TGI: 812 nM and 381 nM
